Test results published in PubChem BioAssay (NCI).
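These data come from cells grown in 96-well plates and exposed to compound for 48 hours at five concentrations. GI50 marks 50% less growth. TGI denotes the concentration required for complete inhibition of growth.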

What was measured:
Assay in all cases: growth of human tumour cells (NCI), 48 h
786-0 renal = tested on: 786-0 renal
A498 renal = tested on: A498 renal
A549 NSCLC = tested on: A549 NSCLC
ACHN renal = tested on: ACHN renal
BT-549 breast = tested on: BT-549 breast
CAKI-1 renal = tested on: CAKI-1 renal
CCRF-CEM leukemia = tested on: CCRF-CEM leukemia
COLO 205 colon = tested on: COLO 205 colon
DU-145 prostate = tested on: DU-145 prostate
EKVX NSCLC = tested on: EKVX NSCLC
HCC-2998 colon = tested on: HCC-2998 colon
HCT-116 colon = tested on: HCT-116 colon
HCT-15 colon = tested on: HCT-15 colon
HL-60(TB) leukemia = tested on: HL-60(TB) leukemia
HOP-62 NSCLC = tested on: HOP-62 NSCLC
HOP-92 NSCLC = tested on: HOP-92 NSCLC
HS 578T breast = tested on: HS 578T breast
HT29 colon = tested on: HT29 colon
IGROV1 ovarian = tested on: IGROV1 ovarian
K-562 leukemia = tested on: K-562 leukemia
KM12 colon = tested on: KM12 colon
LOX IMVI melanoma = tested on: LOX IMVI melanoma
M14 melanoma = tested on: M14 melanoma
MALME-3M melanoma = tested on: MALME-3M melanoma
MCF7 breast = tested on: MCF7 breast
MDA-MB-231 breast = tested on: MDA-MB-231 breast
MDA-MB-435 = tested on: MDA-MB-435
MOLT-4 leukemia = tested on: MOLT-4 leukemia
NCI-H226 lung = tested on: NCI-H226 lung
NCI-H23 lung = tested on: NCI-H23 lung
NCI-H460 lung = tested on: NCI-H460 lung
NCI-H522 lung = tested on: NCI-H522 lung
NCI/ADR-RES ovarian = tested on: NCI/ADR-RES ovarian
OVCAR-3 ovarian = tested on: OVCAR-3 ovarian
OVCAR-4 ovarian = tested on: OVCAR-4 ovarian
OVCAR-5 ovarian = tested on: OVCAR-5 ovarian
OVCAR-8 ovarian = tested on: OVCAR-8 ovarian
PC-3 prostate = tested on: PC-3 prostate
RPMI-8226 leukemia = tested on: RPMI-8226 leukemia
RXF 393 renal = tested on: RXF 393 renal
SF-268 CNS = tested on: SF-268 CNS
SF-295 CNS = tested on: SF-295 CNS
SF-539 CNS = tested on: SF-539 CNS
SK-MEL-2 melanoma = tested on: SK-MEL-2 melanoma
SK-MEL-28 melanoma = tested on: SK-MEL-28 melanoma
SK-MEL-5 melanoma = tested on: SK-MEL-5 melanoma
SK-OV-3 ovarian = tested on: SK-OV-3 ovarian
SN12C renal = tested on: SN12C renal
SNB-19 CNS = tested on: SNB-19 CNS
SNB-75 CNS = tested on: SNB-75 CNS
SR leukemia = tested on: SR leukemia
SW-620 colon = tested on: SW-620 colon
T-47D breast = tested on: T-47D breast
TK-10 renal = tested on: TK-10 renal
U251 CNS = tested on: U251 CNS
UACC-257 melanoma = tested on: UACC-257 melanoma
UACC-62 melanoma = tested on: UACC-62 melanoma
UO-31 renal = tested on: UO-31 renal

Question: With `CC1=C(/C=C/C(=O)CC(=O)/C=C/C2=C(C)CCCC2(C)C)C(C)(C)CCC1` as the molecule, how does the GI50 (786-0 renal) read?
Answer: 25.2 µM

Question: And the TGI (786-0 renal)?
Answer: > 100 µM

Question: What about the GI50 (A498 renal) of the same molecule?
Answer: 51.7 µM

Question: And the TGI (A498 renal)?
Answer: > 100 µM

Question: And the GI50 (A549 NSCLC)?
Answer: 34.2 µM

Question: What about the TGI (A549 NSCLC) of the same molecule?
Answer: > 100 µM

Question: And the GI50 (ACHN renal)?
Answer: 34.3 µM

Question: And the TGI (ACHN renal)?
Answer: > 100 µM

Question: What about the GI50 (BT-549 breast) of the same molecule?
Answer: 33.9 µM

Question: What about the TGI (BT-549 breast) of the same molecule?
Answer: > 100 µM

Question: What about the GI50 (CAKI-1 renal) of the same molecule?
Answer: 19.1 µM

Question: What about the TGI (CAKI-1 renal) of the same molecule?
Answer: > 100 µM

Question: What about the GI50 (CCRF-CEM leukemia) of the same molecule?
Answer: 5.22 µM

Question: What about the TGI (CCRF-CEM leukemia) of the same molecule?
Answer: 31 µM

Question: And the GI50 (COLO 205 colon)?
Answer: 35.9 µM

Question: What about the TGI (COLO 205 colon) of the same molecule?
Answer: > 100 µM

Question: And the GI50 (DU-145 prostate)?
Answer: 14.3 µM

Question: What about the TGI (DU-145 prostate) of the same molecule?
Answer: > 100 µM

Question: What about the GI50 (EKVX NSCLC) of the same molecule?
Answer: 15.5 µM

Question: And the TGI (EKVX NSCLC)?
Answer: 52.8 µM

Question: What about the GI50 (HCC-2998 colon) of the same molecule?
Answer: 35.4 µM

Question: What about the TGI (HCC-2998 colon) of the same molecule?
Answer: > 100 µM

Question: And the GI50 (HCT-116 colon)?
Answer: 27.7 µM

Question: What about the TGI (HCT-116 colon) of the same molecule?
Answer: > 100 µM

Question: What about the GI50 (HCT-15 colon) of the same molecule?
Answer: 30.8 µM

Question: What about the TGI (HCT-15 colon) of the same molecule?
Answer: > 100 µM

Question: What about the GI50 (HL-60(TB) leukemia) of the same molecule?
Answer: 5.42 µM

Question: And the TGI (HL-60(TB) leukemia)?
Answer: 24.2 µM

Question: And the GI50 (HOP-62 NSCLC)?
Answer: 32.3 µM

Question: And the TGI (HOP-62 NSCLC)?
Answer: > 100 µM

Question: What about the GI50 (HOP-92 NSCLC) of the same molecule?
Answer: 28 µM

Question: What about the TGI (HOP-92 NSCLC) of the same molecule?
Answer: > 100 µM

Question: And the GI50 (HS 578T breast)?
Answer: 14.7 µM

Question: What about the TGI (HS 578T breast) of the same molecule?
Answer: 68.4 µM

Question: And the GI50 (HT29 colon)?
Answer: 28.3 µM

Question: What about the TGI (HT29 colon) of the same molecule?
Answer: > 100 µM

Question: What about the GI50 (IGROV1 ovarian) of the same molecule?
Answer: 21 µM

Question: And the TGI (IGROV1 ovarian)?
Answer: 88.5 µM

Question: What about the GI50 (K-562 leukemia) of the same molecule?
Answer: 18.7 µM

Question: And the TGI (K-562 leukemia)?
Answer: > 100 µM

Question: What about the GI50 (KM12 colon) of the same molecule?
Answer: 32.9 µM

Question: And the TGI (KM12 colon)?
Answer: > 100 µM

Question: And the GI50 (LOX IMVI melanoma)?
Answer: 18.5 µM

Question: What about the TGI (LOX IMVI melanoma) of the same molecule?
Answer: 81 µM

Question: What about the GI50 (M14 melanoma) of the same molecule?
Answer: 47.7 µM

Question: What about the TGI (M14 melanoma) of the same molecule?
Answer: > 100 µM

Question: And the GI50 (MALME-3M melanoma)?
Answer: 38.1 µM

Question: And the TGI (MALME-3M melanoma)?
Answer: > 100 µM

Question: What about the GI50 (MCF7 breast) of the same molecule?
Answer: 22.7 µM

Question: And the TGI (MCF7 breast)?
Answer: 72.9 µM

Question: And the GI50 (MDA-MB-231 breast)?
Answer: 52.3 µM

Question: What about the TGI (MDA-MB-231 breast) of the same molecule?
Answer: > 100 µM

Question: And the GI50 (MDA-MB-435)?
Answer: 38.1 µM

Question: What about the TGI (MDA-MB-435) of the same molecule?
Answer: > 100 µM

Question: What about the GI50 (MOLT-4 leukemia) of the same molecule?
Answer: 6.51 µM

Question: What about the TGI (MOLT-4 leukemia) of the same molecule?
Answer: 32.6 µM

Question: And the GI50 (NCI-H226 lung)?
Answer: 23.3 µM

Question: What about the TGI (NCI-H226 lung) of the same molecule?
Answer: > 100 µM

Question: What about the GI50 (NCI-H23 lung) of the same molecule?
Answer: 24.9 µM

Question: And the TGI (NCI-H23 lung)?
Answer: > 100 µM

Question: And the GI50 (NCI-H460 lung)?
Answer: 18.6 µM

Question: What about the TGI (NCI-H460 lung) of the same molecule?
Answer: 82.1 µM

Question: What about the GI50 (NCI-H522 lung) of the same molecule?
Answer: 26.5 µM

Question: What about the TGI (NCI-H522 lung) of the same molecule?
Answer: > 100 µM

Question: What about the GI50 (NCI/ADR-RES ovarian) of the same molecule?
Answer: 31.4 µM

Question: What about the TGI (NCI/ADR-RES ovarian) of the same molecule?
Answer: > 100 µM

Question: And the GI50 (OVCAR-3 ovarian)?
Answer: 32.1 µM

Question: What about the TGI (OVCAR-3 ovarian) of the same molecule?
Answer: > 100 µM

Question: And the GI50 (OVCAR-4 ovarian)?
Answer: 21.7 µM

Question: And the TGI (OVCAR-4 ovarian)?
Answer: > 100 µM

Question: And the GI50 (OVCAR-5 ovarian)?
Answer: 77 µM

Question: And the TGI (OVCAR-5 ovarian)?
Answer: > 100 µM

Question: And the GI50 (OVCAR-8 ovarian)?
Answer: 30.3 µM

Question: What about the TGI (OVCAR-8 ovarian) of the same molecule?
Answer: > 100 µM

Question: What about the GI50 (PC-3 prostate) of the same molecule?
Answer: 17.6 µM

Question: What about the TGI (PC-3 prostate) of the same molecule?
Answer: 75.2 µM

Question: What about the GI50 (RPMI-8226 leukemia) of the same molecule?
Answer: 14.9 µM

Question: What about the TGI (RPMI-8226 leukemia) of the same molecule?
Answer: 40.8 µM

Question: And the GI50 (RXF 393 renal)?
Answer: 4.38 µM

Question: And the TGI (RXF 393 renal)?
Answer: 16 µM

Question: What about the GI50 (SF-268 CNS) of the same molecule?
Answer: 18.2 µM

Question: And the TGI (SF-268 CNS)?
Answer: > 100 µM

Question: What about the GI50 (SF-295 CNS) of the same molecule?
Answer: 15.6 µM

Question: And the TGI (SF-295 CNS)?
Answer: 54.4 µM

Question: And the GI50 (SF-539 CNS)?
Answer: 26 µM

Question: And the TGI (SF-539 CNS)?
Answer: > 100 µM

Question: What about the GI50 (SK-MEL-2 melanoma) of the same molecule?
Answer: 20.3 µM

Question: And the TGI (SK-MEL-2 melanoma)?
Answer: 77.8 µM

Question: What about the GI50 (SK-MEL-28 melanoma) of the same molecule?
Answer: 27 µM

Question: And the TGI (SK-MEL-28 melanoma)?
Answer: > 100 µM

Question: And the GI50 (SK-MEL-5 melanoma)?
Answer: 22.1 µM

Question: What about the TGI (SK-MEL-5 melanoma) of the same molecule?
Answer: 91.8 µM

Question: And the GI50 (SK-OV-3 ovarian)?
Answer: 40.6 µM

Question: What about the TGI (SK-OV-3 ovarian) of the same molecule?
Answer: > 100 µM

Question: What about the GI50 (SN12C renal) of the same molecule?
Answer: 40.3 µM

Question: And the TGI (SN12C renal)?
Answer: > 100 µM

Question: What about the GI50 (SNB-19 CNS) of the same molecule?
Answer: 33.2 µM

Question: And the TGI (SNB-19 CNS)?
Answer: > 100 µM

Question: What about the GI50 (SNB-75 CNS) of the same molecule?
Answer: 49.6 µM

Question: What about the TGI (SNB-75 CNS) of the same molecule?
Answer: > 100 µM

Question: What about the GI50 (SR leukemia) of the same molecule?
Answer: 11.9 µM

Question: What about the TGI (SR leukemia) of the same molecule?
Answer: 40.4 µM

Question: What about the GI50 (SW-620 colon) of the same molecule?
Answer: 25.7 µM

Question: And the TGI (SW-620 colon)?
Answer: > 100 µM

Question: What about the GI50 (T-47D breast) of the same molecule?
Answer: 41.5 µM

Question: What about the TGI (T-47D breast) of the same molecule?
Answer: > 100 µM

Question: And the GI50 (TK-10 renal)?
Answer: 28.1 µM

Question: What about the TGI (TK-10 renal) of the same molecule?
Answer: > 100 µM

Question: What about the GI50 (U251 CNS) of the same molecule?
Answer: 29.2 µM

Question: What about the TGI (U251 CNS) of the same molecule?
Answer: > 100 µM

Question: And the GI50 (UACC-257 melanoma)?
Answer: 20.6 µM

Question: What about the TGI (UACC-257 melanoma) of the same molecule?
Answer: 63.5 µM

Question: What about the GI50 (UACC-62 melanoma) of the same molecule?
Answer: 19.1 µM

Question: What about the TGI (UACC-62 melanoma) of the same molecule?
Answer: 44.7 µM

Question: What about the GI50 (UO-31 renal) of the same molecule?
Answer: 26.8 µM

Question: And the TGI (UO-31 renal)?
Answer: > 100 µM
